# Values quoted from earlier work in US5366983A, “Use of quaternary ammonium compounds to remove salmonella contamination from meat products” (The Board of Trustees of The University of Arkansas, priority 1992, dated 1994).
# What was measured:
# [1] = test system: Escherichia coli ATCC 25922; conditions: E. coli; cited from earlier work
# [2] = test system: Staphylococcus aureus ATCC 29213; conditions: S. aureus; cited from earlier work
structure (smiles),measurement,setting,value
CC1(C)S[C@@H]2[C@H](NC(=O)[C@H](N)c3ccccc3)C(=O)N2[C@H]1C(=O)O [ampicillin],acceptable MIC by NCCLS,[1],2 to 8 µg/mL
same,acceptable MIC by NCCLS,[2],0.5 to 2 µg/mL
